In article PMC11767673 (2024):

Assays:
[1] = test system: OR7 aptamer (DNA, aptamer) CAAGGAAAATCCTTCAACGAAGTGGG; test: transmembrane electrochemical impedance spectroscopy (potentiostat and impedance reader); settings: 137 mM NaCl, 2.7 mM KCl, 5 mM MgCl2; PBS pH 7.4, 3% DMSO, room temperature; aptamer immobilised on membrane; control, highest concentration not given
[2] = test system: OR7 aptamer (DNA, aptamer) CAAGGAAAATCCTTCAACGAAGTGGG; test: transmembrane electrochemical impedance spectroscopy (commercial potentiostat), Langmuir fit; settings: 137 mM NaCl, 2.7 mM KCl, 5 mM MgCl2; PBS pH 7.4, 3% DMSO, room temperature; aptamer immobilised on membrane
[3] = test system: OR7 aptamer (DNA, aptamer) CAAGGAAAATCCTTCAACGAAGTGGG; test: transmembrane electrochemical impedance spectroscopy (ADuCM350 impedance reader), Langmuir fit; settings: 137 mM NaCl, 2.7 mM KCl, 5 mM MgCl2; PBS pH 7.4, 3% DMSO, room temperature; aptamer immobilised on membrane

binding [1]	KD [2] [nM]	KD [3] [nM]	SMILES
no			CCN(CC)CCCC(C)Nc1ccnc2cc(Cl)ccc12 (stereo not drawn)
	2	4	CCN(CC)Cc1cc(Nc2ccnc3cc(Cl)ccc23)ccc1O
